Patent US7192931B2, “Treatment of demyelinating diseases” (Neuren Pharmaceuticals Ltd., priority 2000, dated 2007)

Experiments:
[1] = system: C57Bl/6 mice with MOG35-55 peptide-induced EAE; experiment: Clinical scoring of MOG35-55-induced EAE; format: in vivo, mouse; conditions: for effectiveness of prolonged treatment on disease severity / effect on advanced EAE (clinical symptoms): advanced disease; for effectiveness of prolonged treatment on disease severity: prolonged treatment from day 60 (FIG. 1C); for effect on advanced EAE (clinical symptoms): mAb three injections from day 51, neuroprotectors 7 days from day 60 (FIG. 1B); for effect on development of EAE (clinical symptoms): early disease, treatment from day 35 (FIG. 1A)
Procedure: C57Bl/6 mice (8–10 week old) were injected subcutaneously in one flank with 300 μg of MOG35-55 peptide ([…]: SEQ ID NO:1) synthesized by Mimotapes Pty Ltd, Clayton, Australia and emulsified in CFA containing 500 μg of Mycobacterium tuberculosis H37Ra (DIFCO Laboratories, Detrit, USA). They also received 500 ng of pertussis toxin (List Biological Laboratories, CA, USA) in 200 μl PBS intravenously via the tail vein, followed 48 hours later by a second dose. A second injection of MOG peptide was given in the absence of pertussis toxin one week later in the opposite flank, as described previously (Kanwar et al., 2000b).
Two treatment protocols were employed, involving the treatment of early disease, versus advanced disease. For early disease, reagents were administered at day 35 (following MOG injection). Antibody was administered thrice on alternate days, whereas neuroprotectors were given daily for 6 days, where 50% of reagent was given ip and 50% iv. In the treatment of advanced disease, therapy as above was initiated at day 60, with either three or eight anti-MAdCAM-1 mAb injections, and neuroprotectors given daily for either 7 or 18 days.
The mice were monitored daily and scored according to the following scale: 0, no clinical signs of EAE; 1, limp tail; 2, partial hind limb paralysis; 3, complete hind limb paralysis; 4, complete hind limb and partial fore limb paralysis; 5, paralysis extending to diaphragm; 6, hind and fore limb paralysis; 7, death due to EAE. Paralysis extending to the diaphragm was denoted as difficulty in remaining upright. […] The daily mean clinical score for each group is the mean disease score of at least five mice. The body weight of animals was measured regularly throughout the experiments. The expanded disability status scale for EAE treated mice was scored using an earlier published scoring system (Villoslada et al. 2000).
The rat hybridoma MECA-367 (rat IgG2a),5 which secretes a mAb against mouse MAdCAM-1 was either provided by Dr Eugene Butcher, Stanford University, Stanford, Calif. (FIGS. 1A and B), or obtained directly from the American Type Culture Collection, Rockville, Md. (FIG. 1C, and remainder of studies). Rat IgG obtained from Sigma Co., USA, served as a control. Antibodies were administered into the tail vein (70% of mAb) and intraperitoneally (30% of mAb) at 10 mg/Kg separately or in combination on alternate days at the time points indicated (FIGS. 1–4). The rat IgG control antibody was also administered at 10 mg/Kg. Backbones from sacrificed mice were frozen in isopentane at −70° C. Transverse 10 μm sections made through the spinal cord of control and diseased mice, in each case made at the same levels of the cord, were mounted on poly L-lysine-coated slides, and stained with haematoxylin and eosin.

oligodendrocytes = conditions: Smith et al., 2000, Pitt et al.; cited from earlier work
EAE = conditions: Smith et al., 2000, Pitt et al.; cited from earlier work
hippocampus neurons = conditions: Saura et al., 1999; cited from earlier work
[2] = system: N-methyl-D-aspartate (NMDA) receptor; conditions: U.S. Pat. No. 5,804,550; cited from earlier work

Compound	effectiveness of prolonged treatment on disease severity [1]	effect on advanced EAE (clinical symptoms) [1]	effect on development of EAE (clinical symptoms) [1]	excitotoxic effects of glutamate on oligodendrocytes (oligodendrocytes)	pathogenesis of EAE (EAE)	neuronal death in the hippocampus injured by NMDA (hippocampus neurons)	glutamate binding to the NMDA receptor [2]
NS(=O)(=O)c1cccc2c1c([N+](=O)[O-])cc1nc(O)c(O)nc12 [NBQX, 2,3-dihydroxy-6-nitro-7-sulfamoylbenzo(f)quinoxaline]	NBQX+GPE+anti-MAdCAM-1>NBQX+GPE>NBQX>GPE	only caused temporary remission	suppressed EAE, but to a greater extent than achieved with GPE	inhibits the excitotoxic effects of glutamate on oligodendrocytes	slightly ameliorates the pathogenesis of EAE	–	–
Gly-Pro-Glu [GPE]	NBQX+GPE+anti-MAdCAM-1>NBQX+GPE>NBQX>GPE	only caused temporary remission	suppressed EAE, up to 27 days after suspension of treatment	–	–	prevents neuronal death	inhibits glutamate binding
